# Data: patent US20130324522A1, “INSECT ODORANT RECEPTOR ANTAGONISTS” (THE ROCKEFELLER UNIVERSITY, priority 2010, published 2013)
# Where two headings read alike, the source gives them in different places.
# Columns and labels:
# [1] = molecular target: T1, serotonin receptor (5HT3) (Mus musculus, UniProt P23979); experiment: Ca2+-imaging of stable Flip-In T-Rex cell line 5HT3; format: cell-based; conditions: for inhibition at 4 µM: read-out: Percent Inhibition 5HT3
# T1 construct: Full-length cDNAs for mosquito (Anopheles gambiae) odorant receptor; expressed in transfected cells
# T1 sequence (P23979 24-489): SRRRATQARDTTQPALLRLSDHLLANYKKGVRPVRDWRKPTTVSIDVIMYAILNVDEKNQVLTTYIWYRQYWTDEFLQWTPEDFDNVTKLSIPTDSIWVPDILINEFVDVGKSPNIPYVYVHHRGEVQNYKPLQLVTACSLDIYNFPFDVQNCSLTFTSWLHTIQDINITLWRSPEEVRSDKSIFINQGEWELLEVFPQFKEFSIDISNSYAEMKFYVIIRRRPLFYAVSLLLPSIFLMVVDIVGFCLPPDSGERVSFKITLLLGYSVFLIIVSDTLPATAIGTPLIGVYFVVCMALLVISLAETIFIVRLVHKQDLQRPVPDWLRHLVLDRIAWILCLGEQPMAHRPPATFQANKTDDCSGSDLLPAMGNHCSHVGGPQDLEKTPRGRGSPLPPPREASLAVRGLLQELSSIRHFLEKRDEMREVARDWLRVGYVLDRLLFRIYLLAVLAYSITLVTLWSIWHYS
# Procedure: (§1) Full-length cDNAs for mosquito (Anopheles gambiae) odorant receptor (OR1, OR2, OR7, OR8, OR28), and fly (Drosophila melanogaster) odorant receptor (Or47a, Or83b), mouse TRP channel (TRPM8), and mouse serotonin receptor (5HT3) were obtained and subcloned into mammalian expression vectors. The following mammalian expression vectors were used:
# (§2) Stable cell lines Or47a/Or83b and 5HT3 were generated from Flip-In T-Rex cells. Flip-In T-Rex-based cell lines were cultured in DMEM supplemented with these additional antibiotics: 6 μg/mL blasticidin and 100 μg/mL hygromycin.
# (§3) Cells were trypsinized and split into 35 mm dishes 1 day before transfection. Confluent cells (60-70%) in 35 mm dishes were co-transfected with 1 μg of Or47a/Or83b plasmid in pcDNA5/FRT/TO/IRES plus the pOG44 plasmid or 1 μg of 5HT3 plasmid in pcDNA5/FRT/TO plus the pOG44 plasmid using lipofectamine 2000. Co-transfection of pOG44 and pcDNA5/FRT/TO/IRES or pcDNA5/FRT/TO allows expression of Flp recombinase and integration of the pcDNA5 plasmid into the genome via the FRT site. After one day of incubation, the transfected cells were transferred into 10 cm dishes with DMEM containing antibiotics: 20 μg/mL of hygromycin and 6 μg/mL of blasticidin. The concentration of Hygromycin was increased to 100 μg/mL when the population of cells became 30-40% confluent. The cells were cultured by changing medium every two days until cell clumps appeared. The clumps were picked and transferred into 96 well plates with DMEM containing 100 μg/mL of Hygromycin and 6 μg/mL of blasticidin. The cells were grown and transferred to 24 well plates, and ligand-evoked calcium increases were tested using the Hamamatsu FDSS6000 real time fluorescence plate reader.
# (§4) Stable cell lines were cultured in 10 cm dishes, and confluent cells (70-80%) were trypsinized. 10,000 cells/20 μL were transferred into each well of 384-well plates coated with poly-D-lysine, and cultured for 2 days. For Flip-In T-Rex cells (cell lines expressing Or47a/Or83b and 5HT3), 5 μL of tetracycline (5 μg/mL) were added 1 day before the assay. 20 μL of Ca-4 dye was loaded into each well for 1.5 hr at room temperature in the dark, and the dye-loaded plates were subjected to Ca^2+-imaging using a Hamamatsu FDSS6000 real time fluorescence plate reader. Odorant solutions (9× final concentration) were prepared by dissolving 1M stock solutions into Hank's Buffered Salt Solution (HBSS), and 30 μL of odor solution was transferred to each well in 384-well plates.
# (§5) Compounds ([…] in DMSO) were stored in 384-well plates, and last two columns (32 wells total) contained only DMSO. 200 nL of small compounds were transferred into the odorant plates before the assay using the Perkin-Elmer Janus workstation. The odorant plates were spun down to remove air bubbles, and placed on the FDSS6000 plate loader, and 5 μL of odorant solution was applied to the cell plate on the FDSS6000. Ca^2+ increase was monitored with fluorescence at 525 nm by excitation at 485 nm.
# [2] = molecular target: T2, Or47a/Or83b (Drosophila melanogaster, UniProt P81921+Q9VNB5); experiment: Ca2+-imaging of stable Flip-In T-Rex cell line Or47a/Or83b; format: cell-based; conditions: for inhibition at 4 µM: read-out: Percent Inhibition OR47a OR83b
# T2 construct: Full-length cDNAs for mosquito (Anopheles gambiae) odorant receptor (OR1, OR2, OR7, OR8, OR28), and fly (Drosophila melanogaster) odorant receptor (Or47a, Or83b); expressed in transfected cells
# T2 sequence (P81921 1-385): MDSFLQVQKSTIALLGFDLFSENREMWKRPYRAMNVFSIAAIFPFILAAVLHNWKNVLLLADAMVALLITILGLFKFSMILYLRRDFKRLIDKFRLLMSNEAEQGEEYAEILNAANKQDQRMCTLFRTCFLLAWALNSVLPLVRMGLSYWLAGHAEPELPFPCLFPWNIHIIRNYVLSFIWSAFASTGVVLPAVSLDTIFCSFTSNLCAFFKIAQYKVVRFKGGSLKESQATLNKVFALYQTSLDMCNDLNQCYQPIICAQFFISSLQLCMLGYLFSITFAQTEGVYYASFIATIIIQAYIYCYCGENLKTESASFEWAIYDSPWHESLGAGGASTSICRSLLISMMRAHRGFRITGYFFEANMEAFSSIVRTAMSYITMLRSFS
# T2 sequence (Q9VNB5 1-486): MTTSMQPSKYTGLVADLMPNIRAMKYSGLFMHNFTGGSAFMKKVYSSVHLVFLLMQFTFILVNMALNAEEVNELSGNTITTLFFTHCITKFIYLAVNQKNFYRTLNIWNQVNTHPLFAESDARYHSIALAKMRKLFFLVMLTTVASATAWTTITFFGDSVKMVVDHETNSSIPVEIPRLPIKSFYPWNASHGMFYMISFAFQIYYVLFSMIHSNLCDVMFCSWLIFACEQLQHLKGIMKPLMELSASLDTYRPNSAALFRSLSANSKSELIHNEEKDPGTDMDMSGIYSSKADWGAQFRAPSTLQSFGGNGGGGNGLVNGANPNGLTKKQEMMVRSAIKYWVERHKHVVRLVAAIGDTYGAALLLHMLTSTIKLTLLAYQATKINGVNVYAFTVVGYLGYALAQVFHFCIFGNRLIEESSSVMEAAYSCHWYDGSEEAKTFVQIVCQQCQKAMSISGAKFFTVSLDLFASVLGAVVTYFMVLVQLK
# Procedure: as §1, §2, §3, §4, §5
# [3] = ligand serotonin 10 μM, read-out: IC50 5HT3
# [4] = ligand pentyl acetate 30 μM, read-out: IC50 OR47a OR83b
SMILES,inhibition at 4 µM ([1]; compound applied at 4 μM) [%],"IC50 ([2]; Table B, read-out: IC50 OR47a) [µM]",inhibition at 4 µM ([2]; compound applied at 4 μM) [%],further results
Cc1cccc(NC(=O)CCC2CCN(C(=O)CCOc3ccccc3)CC2)c1 [RU-0030324],26 to 50,< 0.1,51 to 74,
O=C(c1ccco1)N(Cc1nccn1Cc1ccccc1Cl)CC1CC1 [RU-0047281],> 75,> 1,> 75,"IC50 ([1]; Table B, read-out: IC50 5HT3): 0.1 to 1 µM"
O=C(NCCC(=O)N1CCOC(COCc2ccc(F)cc2Cl)C1)OCc1ccccc1 (centres unmarked) [RU-0050344],< 25,,26 to 50,
C=CCOc1cccc(C(=O)N2CCCC(C(=O)c3ccccc3OC)C2)c1 (centres unmarked) [RU-0029409],< 25,,51 to 74,
Cc1ccccc1C(=O)N[C@@H]1CCCCC1NC(=O)C1CCN(C(=O)c2ccc(C(C)(C)C)cc2)CC1 (some centres unmarked) [RU-0045678],26 to 50,,26 to 50,
CC(C)Nc1nc(Cl)nc(N(C)C(C)C)n1 [RU-T7],,,,IC50 [1]: > 20 µM; IC50 [2]: > 20 µM
CCN(CC)C(=O)Oc1ccc2c(ccn2Cc2ccccc2Cl)c1NC(=O)CCCCC(=O)OC [RU-0075446],,,,inhibition at 4 µM [1]: 26 to 50%; inhibition at 4 µM [2]: < 25%
CSc1nc(NC(C)C)nc(NC(C)C)n1 [RU-T2],,,,"IC50 [1, 3]: 2 to 20 µM; IC50 [2, 4]: > 20 µM"
COc1ccccc1CCC(=O)N1CCC(CCC(=O)Nc2ccccc2)CC1 [RU-0032455],26 to 50,> 1,51 to 74,
COCCN(Cc1c(-c2ccccc2)noc1N1CCSCC1)CC(O)COCc1ccco1 (centres unmarked) [RU-0037278],26 to 50,> 1,51 to 74,
CCn1c(C)c(C(=O)CN(CC2CCCO2)C(=O)C2C[C@H]2c2ccccc2)c(C)c1C(=O)OC (some centres unmarked) [RU-0071273],26 to 50,> 1,26 to 50,
Cc1ccccc1C(=O)N[C@@H]1CCCCC1NC(=O)C1CCN(C(=O)C23CC4CC(CC(C4)C2)C3)CC1 (some centres unmarked) [RU-0045351],< 25,,26 to 50,
Cc1nc(NC(C)C)nc(NC(C)C)n1 [RU-T6],,,,IC50 [1]: > 20 µM; IC50 [2]: > 20 µM
CC(C)Nc1nc(Cl)nc(NC(C)C)n1 [RU-T1],,,,"IC50 [1, 3]: > 20 µM; IC50 [2, 4]: > 20 µM"
CN(C)c1ccc(C(=O)N2CCOC(COCc3ccccc3F)C2)cc1 (centres unmarked) [RU-0050325],< 25,> 1,26 to 50,
N#Cc1ccccc1C(=O)N1CCOC(COCc2c(Cl)cccc2Cl)C1 (centres unmarked) [RU-0050405],< 25,> 1,51 to 74,
CCN(CC)C(=O)Oc1ccc2c(ccn2Cc2ccc(Cl)cc2)c1NC(=O)C1CC1 [RU-0075475],,,,inhibition at 4 µM [1]: < 25%; inhibition at 4 µM [2]: < 25%
CC(C)Nc1nc(NC(C)C)nc(C(F)(F)F)n1 [RU-T8],,,,IC50 [1]: > 20 µM; IC50 [2]: > 20 µM

SMILES,inhibition at 4 µM ([1]; compound applied at 4 μM) [%],"IC50 ([2]; Table B, read-out: IC50 OR47a) [µM]",inhibition at 4 µM ([2]; compound applied at 4 μM) [%],further results
Cc1ccc(-c2nnc(SCCCC(=O)N3CCN(C(=O)c4cccc(F)c4)C(C)C3)n2-c2ccc(C)cc2)cc1 (centres unmarked) [RU-0071789],26 to 50,,26 to 50,
Cc1c(C(=O)NCc2ccco2)cnn1-c1ccccc1 [RU-0047765],< 25,> 1,26 to 50,
CCNc1nc(NCC)nc(SC)n1 [RU-T4],,,,"IC50 [1, 3]: 20 to 50 µM; IC50 [2, 4]: > 20 µM"
CCOC(=O)C1CCCN(C(=O)c2csc(CSc3nnc(-c4cccc(OC)c4)n3-c3ccc(C)cc3)n2)C1 (centres unmarked) [RU-0071628],26 to 50,> 1,51 to 74,
COc1ccccc1C(=O)C1CCCN(C(=O)c2cccc(N3CCOCC3)c2)C1 (centres unmarked) [RU-0029350],< 25,< 0.1,51 to 74,
CN(Cc1nccn1Cc1c(F)cccc1Cl)C(=O)C1CCCC1 [RU-I5],,,,"IC50 [1, 3]: 2 to 20 µM; IC50 [2, 4]: 20 to 50 µM"
O=C(c1nccn1Cc1c(F)cccc1Cl)N(CC1CCCC1)C1CC1 [RU-I3],,,,"IC50 [1, 3]: 2 to 20 µM; IC50 [2, 4]: < 2 µM"
Cc1ccccc1C(=O)N[C@@H]1CCCCC1NC(=O)C1CCCN(S(=O)(=O)c2cc(Cl)ccc2Cl)C1 (some centres unmarked) [RU-0045691],< 25,,26 to 50,
CCc1c(C(=O)NCc2cccnc2)cnn1-c1ccccc1 [RU-0048504],< 25,,26 to 50,
COCCNC(=O)c1ccc(CSc2nnc(-c3ccc(C)cc3)n2-c2ccccc2C)cc1 [RU-0053556],< 25,,26 to 50,
CCN(CC)c1onc(-c2ccccc2)c1CN(CC1CCCO1)C(=O)c1ccc2c(c1)OCO2 (centres unmarked) [RU-0036875],51 to 74,> 1,51 to 74,"IC50 ([1]; Table B, read-out: IC50 5HT3): > 1 µM"
C=CCN(Cc1nccn1Cc1cccc(F)c1)C(=O)c1ccccc1F [RU-I1],,,,"IC50 [1, 3]: 20 to 50 µM; IC50 [2, 4]: > 20 µM"
Fc1cccc(Cl)c1Cn1ccnc1CN(CC1CCCC1)C1CC1 [RU-I4],,,,"IC50 [1, 3]: > 20 µM; IC50 [2, 4]: > 20 µM"
COc1ccc(-n2c(Cc3ccccc3)nnc2SCCCC(=O)N2CCN(C(=O)c3ccc(C(F)(F)F)cc3)C(C)C2)cc1 (centres unmarked) [RU-0071828],26 to 50,,26 to 50,
c1ccc(CNc2nc(NCc3ccco3)nc(N3CCOCC3)n2)cc1 [RU-0020050],26 to 50,< 0.1,51 to 74,
C=CCN(Cc1nccn1Cc1ccc(Cl)c(Cl)c1)C(=O)c1ccccc1F [RU-0047955],< 25,,26 to 50,
O=C(C1CCCC1)N(Cc1nccn1CCc1c(F)cccc1Cl)C1CC1 [RU-I2],,,,"IC50 [1, 3]: 2 to 20 µM; IC50 [2, 4]: < 2 µM"
O=C(C1CCC1)N(Cc1ccco1)Cc1nccn1Cc1ccccc1Cl [RU-0048066],< 25,,26 to 50,
